Source: ChEMBL document CHEMBL4130588, “Ubiquitin-Specific Inhibitors for the Treatment of Cancers, Autoimmune, and Infectious Diseases” (ACS Med Chem Lett, 2017)

Experiments:
[1] = Inhibition of recombinant human His6-tagged USP28-5 (1 to 1077 residues) using Ub-Rh110 as substrate pretreated for 30 mins followed by substrate addition measured after 20 mins by fluorescence assay
[2] = biological target: T1, Ubiquitin carboxyl-terminal hydrolase 25 (Homo sapiens, UniProt Q9UHP3); test: Inhibition of recombinant human His6-tagged USP25 expressed in baculovirus infected Sf21 insect cells using Ub-Rh110 as substrate pretreated for 30 mins followed by substrate addition measured after 45 mins by fluorescence assay
T1 sequence (Q9UHP3 whole entry): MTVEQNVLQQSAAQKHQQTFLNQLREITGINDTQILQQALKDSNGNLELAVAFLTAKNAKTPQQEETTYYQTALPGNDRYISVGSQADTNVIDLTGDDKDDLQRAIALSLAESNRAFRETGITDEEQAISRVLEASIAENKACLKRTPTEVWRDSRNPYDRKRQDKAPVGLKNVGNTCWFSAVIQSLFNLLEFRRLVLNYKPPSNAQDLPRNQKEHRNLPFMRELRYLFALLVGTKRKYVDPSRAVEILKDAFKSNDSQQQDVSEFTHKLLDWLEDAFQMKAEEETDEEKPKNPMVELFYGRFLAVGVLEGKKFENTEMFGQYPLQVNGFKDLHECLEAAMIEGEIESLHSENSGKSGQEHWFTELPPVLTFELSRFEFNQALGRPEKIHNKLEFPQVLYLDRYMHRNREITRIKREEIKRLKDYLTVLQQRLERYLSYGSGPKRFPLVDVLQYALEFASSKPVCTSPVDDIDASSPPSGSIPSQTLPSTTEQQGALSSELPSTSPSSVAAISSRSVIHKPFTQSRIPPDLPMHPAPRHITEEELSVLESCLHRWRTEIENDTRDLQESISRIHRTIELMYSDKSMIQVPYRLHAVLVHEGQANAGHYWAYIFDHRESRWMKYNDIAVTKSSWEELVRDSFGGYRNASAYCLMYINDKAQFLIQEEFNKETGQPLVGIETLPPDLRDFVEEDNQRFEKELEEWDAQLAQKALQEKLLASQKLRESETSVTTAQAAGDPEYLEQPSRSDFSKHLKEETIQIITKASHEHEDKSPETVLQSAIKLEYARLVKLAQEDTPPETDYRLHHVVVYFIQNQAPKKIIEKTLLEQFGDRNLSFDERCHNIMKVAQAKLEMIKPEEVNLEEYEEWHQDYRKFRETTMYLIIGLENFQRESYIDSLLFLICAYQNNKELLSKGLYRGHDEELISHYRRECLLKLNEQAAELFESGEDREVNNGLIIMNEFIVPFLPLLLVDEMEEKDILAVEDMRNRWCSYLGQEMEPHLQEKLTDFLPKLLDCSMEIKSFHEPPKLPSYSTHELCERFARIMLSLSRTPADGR

Compound | IC50 [1] | IC50 [2]
Cc1cnc2c(N)c(C(=O)NCCc3ccc(N4CCNCC4)c(Cl)c3)sc2n1 | 200 to 2000 nM | 
Cc1cnc2c(N)c(C(=O)NCCc3ccc(N4CC5CCC(C4)N5)c(F)c3)sc2n1 | < 200 nM | < 200 nM
Cc1cnc2c(N)c(C(=O)NCCc3ccc(N4CCNCC4)cc3)sc2n1 | 200 to 2000 nM | 
Cc1cnc2c(N)c(C(=O)NCCc3ccc(N4CC5CCC(C4)N5)c(Cl)c3)sc2n1 | < 200 nM | 
Cc1cnc2c(N)c(C(=O)NCCc3cc(F)c(N4CCNCC4)cc3F)sc2n1 | 200 to 2000 nM | 2000 to 10000 nM
Cc1cnc2c(N)c(C(=O)NC[C@@H](C)c3ccc(N4CC5CCC(C4)N5)c(F)c3)sc2n1 | 200 to 2000 nM | 2000 to 10000 nM
Cc1cnc2c(N)c(C(=O)NC[C@H](C)c3ccc(N4CC5CCC(C4)N5)c(F)c3)sc2n1 | 200 to 2000 nM | 2000 to 10000 nM
Cc1cnc2c(N)c(C(=O)NCCc3cc(F)c(N4CC5CCC(C4)N5)cc3F)sc2n1 | < 200 nM | 200 to 2000 nM
